Laboratory results as given in ChEMBL document CHEMBL1127088, “Analogues of platelet activating factor. 8. Antagonists of PAF containing an aromatic ring linked to a pyridinium ring” (J Med Chem, 1993).

Columns and labels:
Oryctolagus cuniculus = test: Protection of PAF induced lethality in rabbit after intraperitoneal dose of 1 mg/kg in saline 0.5 hr prior to an LD90 of PAF; assay type: functional; settings: ip
[1] = target: Platelet-activating factor receptor (Mus musculus) (UniProt Q62035); test: Protection of PAF induced lethality in mouse after intraperitoneal dose of 1 mg/kg in saline 0.5 hr prior to an LD90 of PAF; assay type: functional, organism-based; parameters: dose 1 mg/kg
Chain of Platelet-activating factor receptor (Mus musculus) (Q62035 whole entry): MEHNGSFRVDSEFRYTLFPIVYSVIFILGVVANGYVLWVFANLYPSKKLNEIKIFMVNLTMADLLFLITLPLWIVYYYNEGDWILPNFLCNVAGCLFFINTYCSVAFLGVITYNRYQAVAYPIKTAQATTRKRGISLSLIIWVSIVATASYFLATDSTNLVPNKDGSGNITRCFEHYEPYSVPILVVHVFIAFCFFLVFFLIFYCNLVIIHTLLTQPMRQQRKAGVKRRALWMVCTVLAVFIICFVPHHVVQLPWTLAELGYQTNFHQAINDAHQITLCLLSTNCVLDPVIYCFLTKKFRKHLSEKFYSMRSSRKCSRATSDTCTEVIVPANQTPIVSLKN

Structure (SMILES)	survival at 1 mg/kg (Oryctolagus cuniculus)	Survival [1]
CCCCCCCCCCCCCCOc1ccc(CN(Cc2cc[n+](C)cc2)C(C)=O)cc1	0%	
CCCCCCCCCCCCCCOc1ccc(CN(Cc2cccc[n+]2CC)C(C)=O)cc1		40%
CCCCCCCCCCCCCCOc1ccc(COC(=O)NCc2cccc[n+]2CC)cc1		36%
CCCCCCCCCCCCCCOc1ccc(C(=O)N(Cc2cc[n+](C)cc2)C(C)=O)cc1C(C)(C)C		27%
CCCCCCCOc1ccc(C(=O)N(Cc2cccc[n+]2C)C(C)=O)cc1OCCCCCCC	0%	45%
CCCCCCCCCCCCCCOc1ccc(C(=O)N(Cc2cccc[n+]2C)C(C)=O)cc1OCCCCCCCCCCCCCC		36%
CCCCCCCCCCCCCCOc1ccc(CN(Cc2ccc[n+](C)c2)C(C)=O)cc1		38%
CCCCCCCCCCCCCCOc1ccc(C(=O)N(Cc2cccc[n+]2C)C(C)=O)cc1		27%
CCCCCCCCCCCCCCOc1ccc(C(=O)N(Cc2cccc[n+]2C)C(C)=O)cc1C(C)(C)C	100%	64%
CCCCCCCCCCCCCCOc1ccc(C(=O)N(Cc2cccc[n+]2CC)C(C)=O)cc1OC	33%	58%
CCCCCCCCCCCCCCOc1ccc(C(=O)NC(=O)c2ccc[n+](CCC)c2)cc1OC		42%
CCCCCCCCCCCCCCOc1ccc(C(=O)N(Cc2cccc[n+]2C)C(C)=O)cc1OC	75%	58%
CCCCCCCCCCCCCCOc1ccc(CNC(=O)c2cccc[n+]2CC)cc1		36%
CCCCCCCCCCCCCCOc1ccc(C(=O)NC(=O)c2cc[n+](CCC)cc2)cc1OC		33%
CCCCCCCCCCCCCCCCCCNC(=O)Oc1ccc(C(=O)N(Cc2cccc[n+]2C)C(C)=O)cc1C(C)(C)C		29%
CCCCCCCCCCOc1ccc(C(=O)N(Cc2cccc[n+]2C)C(C)=O)cc1C(C)(C)C		50%
CCCCCCCCCCCCCCOc1ccc(COC(=O)N(Cc2cccc[n+]2C)C(C)=O)cc1		40%
CCCCCCCCCCCCCCOc1cccc(OP(=O)([O-])Oc2cccc(C[n+]3csc(C)c3)c2)c1C(=O)OC	53%	85%
CCCCCCCCCCCCCCOc1ccc(C(=O)N(Cc2cccc[n+]2Cc2ccccc2)C(C)=O)cc1		0%
CCCCCCCCCCCCCCOc1ccc(C(=O)N(Cc2cccc[n+]2CCC)C(C)=O)cc1OC		47%
CCCCCCCCCCCCCCOc1ccccc1CN(Cc1cccc[n+]1C)C(C)=O		23%
CCCCCCCCCCCCCCOc1cc(C(=O)N(Cc2cccc[n+]2C)C(C)=O)ccc1OC		21%
CCCCCCCCCCCCCCOc1ccc(C(=O)N(Cc2ccc[n+](C)c2)C(C)=O)cc1C(C)(C)C		17%
